Data as given in ChEMBL document CHEMBL1145536, “Low-oxygen-recovery assay for high-throughput screening of compounds against nonreplicating Mycobacterium tuberculosis” (2007).
≈ marks a conversion by molar mass, not a printed value.

How the values were obtained:
Format in all cases: functional
[1] = system: Mycobacterium tuberculosis; test: Antimicrobial activity against non replicating persistence Mycobacterium tuberculosis H37Rv in anaerobic condition assessed as relative light unit after 11 days by LORA assay; conditions: 264 h
[2] = system: Mycobacterium tuberculosis; test: Antimicrobial activity against non replicating persistence Mycobacterium tuberculosis H37Rv in anaerobic condition assessed as bacterial density after 10 days; conditions: 240 h
[3] = system: Mycobacterium tuberculosis; test: Antimicrobial activity against non replicating persistence Mycobacterium tuberculosis H37Rv in aerobic condition assessed by relative light units after 7 days; conditions: 168 h
[4] = system: Mycobacterium tuberculosis; test: Antimicrobial activity against non replicating persistence Mycobacterium tuberculosis H37Rv in aerobic condition assessed as bacterial density after 7 days; conditions: 168 h

CN(C)c1ccc(O)c2c1C[C@H]1C[C@H]3[C@H](N(C)C)C(O)=C(C(N)=O)C(=O)[C@@]3(O)C(O)=C1C2=O [MINOCYCLINE]
MIC [1]: 53.5 µM (≈ 24.5 µg/mL) | MIC [2]: 38.4 µM (≈ 17.6 µg/mL) | MIC [3]: 7.1 µM (≈ 3.25 µg/mL) | MIC [4]: 7.2 µM (≈ 3.29 µg/mL)

CN[C@@H]1[C@H](O[C@H]2[C@H](O[C@H]3[C@H](O)[C@@H](O)[C@H](N=C(N)N)[C@@H](O)[C@@H]3N=C(N)N)O[C@@H](C)[C@]2(O)C=O)O[C@@H](CO)[C@H](O)[C@H]1O (stereo in doubt) [STREPTOMYCIN]
MIC [1]: 1.2 µM (≈ 0.698 µg/mL) | MIC [2]: 0.8 µM (≈ 0.465 µg/mL) | MIC [3]: 0.5 µM (≈ 0.291 µg/mL) | MIC [4]: ≤ 0.5 µM

O=C(O)c1cn(C2CC2)c2cc(N3CCNCC3)c(F)cc2c1=O [CIPROFLOXACIN]
MIC [1]: > 128 µM | MIC [2]: 33 µM (≈ 10.9 µg/mL) | MIC [3]: 1.5 µM (≈ 0.497 µg/mL) | MIC [4]: ≤ 0.5 µM

CCC[C@@H]1C[C@@H](C(=O)N[C@@H]([C@H]2O[C@H](SC)[C@H](O)[C@@H](O)[C@H]2O)[C@@H](C)O)N(C)C1 [LINCOMYCIN]
MIC [1]: > 128 µM | MIC [2]: > 128 µM | MIC [3]: > 128 µM | MIC [4]: 104 µM (≈ 42.1 µg/mL)

O=C1OCCN1/N=C/c1ccc([N+](=O)[O-])o1 [FURAZOLIDONE]
MIC [1]: 9.7 µM (≈ 2.18 µg/mL) | MIC [2]: 44.8 µM (≈ 10.1 µg/mL) | MIC [3]: 77.4 µM (≈ 17.4 µg/mL) | MIC [4]: 1 µM (≈ 0.225 µg/mL)

CO[C@H]1/C=C/O[C@@]2(C)Oc3c(C)c(O)c4c(c3C2=O)C2=NC3(CCN(CC(C)C)CC3)NC2=C(NC(=O)/C(C)=C\C=C\[C@H](C)[C@H](O)[C@@H](C)[C@@H](O)[C@@H](C)[C@H](OC(C)=O)[C@@H]1C)C4=O [RIFABUTIN]
MIC [1]: ≤ 0.5 µM | MIC [2]: ≤ 0.5 µM | MIC [3]: 0.5 µM (≈ 0.424 µg/mL) | MIC [4]: ≤ 0.5 µM

CC[C@H]1OC(=O)[C@H](C)[C@@H](O[C@H]2C[C@@](C)(OC)[C@@H](O)[C@H](C)O2)[C@H](C)[C@@H](O[C@@H]2O[C@H](C)C[C@H](N(C)C)[C@H]2O)[C@](C)(OC)C[C@@H](C)C(=O)[C@H](C)[C@@H]2N(NCCCc3ccnc4ccccc34)C(=O)O[C@@]21C
MIC [1]: 2.7 µM (≈ 2.58 µg/mL) | MIC [2]: 1.3 µM (≈ 1.24 µg/mL) | MIC [3]: 0.8 µM (≈ 0.766 µg/mL) | MIC [4]: 1.8 µM (≈ 1.72 µg/mL)

COc1cc(Cc2cnc(N)nc2N)cc(OC)c1OC [TRIMETHOPRIM]
MIC [1]: > 128 µM | MIC [2]: 83.2 µM (≈ 24.2 µg/mL) | MIC [3]: > 128 µM | MIC [4]: > 128 µM

CCC[C@@H]1C[C@@H](C(=O)N[C@H](C(C)Cl)[C@H]2O[C@H](SC)[C@H](O)[C@@H](O)[C@H]2O)N(C)C1 (single isomer, unassigned) [CLINDAMYCIN]
MIC [1]: > 128 µM | MIC [2]: > 128 µM | MIC [3]: > 128 µM | MIC [4]: > 128 µM

O=C(Nc1ccc([N+](=O)[O-])cc1Cl)c1cc(Cl)ccc1O [NICLOSAMIDE]
MIC [1]: ≤ 0.5 µM | MIC [2]: 0.9 µM (≈ 0.294 µg/mL) | MIC [3]: ≤ 0.5 µM | MIC [4]: ≤ 0.5 µM

CC[C@@H](CO)NCCN[C@@H](CC)CO [ETHAMBUTOL]
MIC [1]: > 128 µM | MIC [2]: > 128 µM | MIC [3]: 1.8 µM (≈ 0.368 µg/mL) | MIC [4]: 1 µM (≈ 0.204 µg/mL)

CC1COc2c(N3CCN(C)CC3)c(F)cc3c(=O)c(C(=O)O)cn1c23 (stereo not given) [OFLOXACIN]
MIC [1]: > 128 µM | MIC [2]: 24.2 µM (≈ 8.75 µg/mL) | MIC [3]: 2.3 µM (≈ 0.831 µg/mL) | MIC [4]: 0.7 µM (≈ 0.253 µg/mL)

C[C@]1(Cn2ccnn2)[C@H](C(=O)O)N2C(=O)C[C@H]2S1(=O)=O [TAZOBACTAM]
MIC [1]: > 128 µM | MIC [2]: > 128 µM | MIC [3]: > 128 µM | MIC [4]: > 128 µM

CC(=O)NC[C@H]1CN(c2ccc(N3CCOCC3)c(F)c2)C(=O)O1 [LINEZOLID]
MIC [1]: 65.2 µM (≈ 22 µg/mL) | MIC [2]: > 128 µM | MIC [3]: 6.3 µM (≈ 2.13 µg/mL) | MIC [4]: 1.9 µM (≈ 0.641 µg/mL)

CC(C)/N=c1\cc2n(-c3ccc(Cl)cc3)c3ccccc3nc-2cc1Nc1ccc(Cl)cc1 [CLOFAZIMINE]
MIC [1]: 1.5 µM (≈ 0.71 µg/mL) | MIC [2]: 0.8 µM (≈ 0.379 µg/mL) | MIC [3]: ≤ 0.5 µM | MIC [4]: 0.7 µM (≈ 0.331 µg/mL)

CC(=O)O[C@H]1C[C@@]2(C)[C@@H](C[C@@H](O)[C@H]3[C@@]4(C)CC[C@@H](O)[C@@H](C)[C@@H]4CC[C@@]32C)/C1=C(\CCC=C(C)C)C(=O)O [FUSIDIC ACID]
MIC [1]: 57.7 µM (≈ 29.8 µg/mL) | MIC [2]: 7.2 µM (≈ 3.72 µg/mL) | MIC [3]: 15.8 µM (≈ 8.16 µg/mL) | MIC [4]: 7 µM (≈ 3.62 µg/mL)

COc1c(N2C[C@@H]3CCCN[C@@H]3C2)c(F)cc2c(=O)c(C(=O)O)cn(C3CC3)c12 [MOXIFLOXACIN]
MIC [1]: 15.9 µM (≈ 6.38 µg/mL) | MIC [2]: ≤ 0.5 µM | MIC [3]: 0.5 µM (≈ 0.201 µg/mL) | MIC [4]: ≤ 0.5 µM

CO[C@H]1/C=C/O[C@@]2(C)Oc3c(C)c(O)c4c(O)c(c(/C=N/N5CCN(C)CC5)c(O)c4c3C2=O)NC(=O)/C(C)=C\C=C\[C@H](C)[C@H](O)[C@@H](C)[C@@H](O)[C@@H](C)[C@H](OC(C)=O)[C@@H]1C [RIFAMPIN]
MIC [1]: 1.8 µM (≈ 1.48 µg/mL) | MIC [2]: ≤ 0.5 µM | MIC [3]: 0.5 µM (≈ 0.411 µg/mL) | MIC [4]: ≤ 0.5 µM

CN[C@H](CC(C)C)C(=O)N[C@H]1C(=O)N[C@@H](CC(N)=O)C(=O)N[C@H]2C(=O)N[C@H]3C(=O)N[C@H](C(=O)N[C@H](C(=O)O)c4cc(O)cc(O)c4-c4cc3ccc4O)[C@H](O)c3ccc(c(Cl)c3)Oc3cc2cc(c3O[C@@H]2O[C@H](CO)[C@@H](O)[C@H](O)[C@H]2O[C@H]2C[C@](C)(N)[C@H](O)[C@H](C)O2)Oc2ccc(cc2Cl)[C@H]1O [VANCOMYCIN]
MIC [1]: > 128 µM | MIC [2]: 128 µM (≈ 186 µg/mL) | MIC [3]: > 128 µM | MIC [4]: 15.5 µM (≈ 22.5 µg/mL)

N[C@@H]1CONC1=O [CYCLOSERINE]
MIC [1]: > 128 µM | MIC [2]: 125 µM (≈ 12.7 µg/mL) | MIC [3]: 63.7 µM (≈ 6.5 µg/mL) | MIC [4]: 60.5 µM (≈ 6.18 µg/mL)

O=[N+]([O-])c1cn2c(n1)OC[C@@H](OCc1ccc(OC(F)(F)F)cc1)C2 [PRETOMANID]
MIC [1]: 3.1 µM (≈ 1.11 µg/mL) | MIC [2]: 12 µM (≈ 4.31 µg/mL) | MIC [3]: 0.6 µM (≈ 0.216 µg/mL) | MIC [4]: 0.7 µM (≈ 0.251 µg/mL)

Nc1ccc(C(=O)O)c(O)c1 [AMINOSALICYLIC ACID]
MIC [1]: > 128 µM | MIC [2]: > 128 µM | MIC [3]: 12.3 µM (≈ 1.88 µg/mL) | MIC [4]: 12.3 µM (≈ 1.88 µg/mL)

O=C1CN(/N=C/c2ccc([N+](=O)[O-])o2)C(=O)N1 [NITROFURANTOIN]
MIC [1]: 63.9 µM (≈ 15.2 µg/mL) | MIC [2]: 32 µM (≈ 7.62 µg/mL) | MIC [3]: > 128 µM | MIC [4]: 0.9 µM (≈ 0.214 µg/mL)

NNC(=O)c1ccncc1 [ISONIAZID]
MIC [1]: > 128 µM | MIC [2]: > 128 µM | MIC [3]: ≤ 0.5 µM | MIC [4]: ≤ 0.5 µM

CC(=O)Nc1ccc(/C=N/NC(N)=S)cc1 [AMITHIOZONE]
MIC [1]: > 128 µM | MIC [2]: 70.4 µM (≈ 16.6 µg/mL) | MIC [3]: 14.6 µM (≈ 3.45 µg/mL) | MIC [4]: 31.3 µM (≈ 7.4 µg/mL)

NCC[C@H](O)C(=O)N[C@@H]1C[C@H](N)[C@@H](O[C@H]2O[C@H](CN)[C@@H](O)[C@H](O)[C@H]2O)[C@H](O)[C@H]1O[C@H]1O[C@H](CO)[C@@H](O)[C@H](N)[C@H]1O [AMIKACIN]
MIC [1]: ≤ 0.5 µM | MIC [2]: ≤ 0.5 µM | MIC [3]: 0.5 µM (≈ 0.293 µg/mL) | MIC [4]: ≤ 0.5 µM

CC[C@H]1OC(=O)[C@H](C)[C@@H](O[C@H]2C[C@@](C)(OC)[C@@H](O)[C@H](C)O2)[C@H](C)[C@@H](O[C@@H]2O[C@H](C)C[C@H](N(C)C)[C@H]2O)[C@](C)(OC)C[C@@H](C)C(=O)[C@H](C)[C@@H](O)[C@]1(C)O [CLARITHROMYCIN]
MIC [1]: > 128 µM | MIC [2]: 18.7 µM (≈ 14 µg/mL) | MIC [3]: 13.4 µM (≈ 10 µg/mL) | MIC [4]: 1.6 µM (≈ 1.2 µg/mL)

CC(=O)N1CCN(c2ccc(OC[C@H]3CO[C@](Cn4ccnc4)(c4ccc(Cl)cc4Cl)O3)cc2)CC1 [KETOCONAZOLE]
MIC [1]: 53 µM (≈ 28.2 µg/mL) | MIC [2]: 53.3 µM (≈ 28.3 µg/mL) | MIC [3]: 13.9 µM (≈ 7.39 µg/mL) | MIC [4]: 7.6 µM (≈ 4.04 µg/mL)

NC(=O)c1cnccn1 [PYRAZINAMIDE]
MIC [1]: > 128 µM | MIC [2]: 96 µM (≈ 11.8 µg/mL) | MIC [3]: > 128 µM | MIC [4]: > 128 µM

Cc1ncc([N+](=O)[O-])n1CCO [METRONIDAZOLE]
MIC [1]: > 128 µM | MIC [2]: 40 µM (≈ 6.85 µg/mL) | MIC [3]: > 128 µM | MIC [4]: > 128 µM
